The target in this test is T1, TNIK (Homo sapiens, UniProt Q9UKE5).
T1 construct: purchased Promega V4158
As to the kind of experiment: ADP-Glo Kinase Assay, inhibition activity on TNIK. The class given is biochemical. Here is the method:
The inhibition activities on TNIK, IKKε and TBK1 were measured by a luminometer, TNIK/IKKε/TBK1 Kinase Enzyme System (Promega, Ca# V4158; Invitrogen, PR8031B, Promega, Ca# V3991) and ADP-Glo Kinase Assay using ADP-Glo™ Kinase Analysis Kit (Promega, Ca# V9101) and a kinase reaction buffer [40 mM Tris(pH 7.5), 20 mM MgCl2, 0.1 mg/mL BSA] in accordance with the manufacturer's protocol.
On the technique in general: In ADP-Glo the light output rises with the ADP produced.

Read-outs that look alike come from different tables or passages of the source.

T1 sequence (Q9UKE5 1-367 limits assumed): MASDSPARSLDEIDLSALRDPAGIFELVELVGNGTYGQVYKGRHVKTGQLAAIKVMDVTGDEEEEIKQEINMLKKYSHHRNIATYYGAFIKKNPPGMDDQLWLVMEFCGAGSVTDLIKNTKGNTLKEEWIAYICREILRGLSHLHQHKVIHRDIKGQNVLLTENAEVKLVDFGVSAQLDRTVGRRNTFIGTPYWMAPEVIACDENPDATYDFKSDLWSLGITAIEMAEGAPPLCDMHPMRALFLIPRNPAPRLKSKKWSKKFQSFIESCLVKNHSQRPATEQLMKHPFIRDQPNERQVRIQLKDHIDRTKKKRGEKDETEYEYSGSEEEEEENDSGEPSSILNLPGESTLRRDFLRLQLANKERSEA

With `COc1ccc(C(=O)Nc2ccc(-c3ccc(C(C)=O)cc3)c3c2C(=O)NC3)cc1` [Example 204, N-(7-(4-acetylphenyl)-3-oxoisoindolin-4-yl)-4-methoxy benzamide], where the note is “read-out: TNIK”, the IC50 is above 20 µM.

Take `O=C(Nc1ccc(-c2ccc(F)cc2)c2c1C(=O)NC2)c1ccccc1` [Example 205, N-(7-(4-fluorophenyl)-3-oxoisoindolin-4-yl)benzamide]: for the setting “read-out: TNIK”, the IC50 is above 20 µM.

In the case of `N#Cc1ccc(-c2ccc(NC(=O)c3ccccc3)c3c2CNC3=O)cc1` [Example 207, N-(7-(4-cyanophenyl)-3-oxoisoindolin-4-yl)benzamide], for the setting “read-out: TNIK”, the IC50 is above 20 µM.

In the case of `N#Cc1ccc(C(=O)Nc2ccc(-c3ccccc3)c3c2C(=O)NC3)cc1` [Example 208, 4-Cyano-N-(3-oxo-7-phenylisoindolin-4-yl)benzamide], under “read-out: TNIK”, the IC50 is above 20 µM.

Regarding `Cc1ccc(-c2ccc(NC(=O)c3ccccc3)c3c2CNC3=O)cc1` [Example 209, N-(3-oxo-7-(p-tolyl)isoindolin-4-yl)benzamide], the IC50 (read-out: TNIK) amounted to 2.8 µM.

For the compound `O=C(Nc1ccc(-c2ccc(C(F)(F)F)cc2)c2c1C(=O)NC2)c1ccccc1` [Example 210, N-(3-oxo-7-(4-(trifluoromethyl)phenyl)isoindolin-4-yl) benzamide], the IC50 (read-out: TNIK) was above 20 µM.

Turning to `O=C(Nc1ccc(-c2ccccc2)c2c1C(=O)NC2)c1ccncc1` [Example 211, N-(3-oxo-7-phenylisoindolin-4-yl)isonicotinamide], for the setting “read-out: TNIK”, the IC50 came out at 0.7 µM.

Consider `O=C(Nc1ccc(-c2ccccc2)c2c1C(=O)NC2)c1ccco1` [Example 212, N-(3-oxo-7-phenylisoindolin-4-yl)furan-2-carboxamide], for which, where the note is “read-out: TNIK”, the IC50 is 0.3 µM.

For `O=C(Nc1ccc(-c2ccccc2)c2c1C(=O)NC2)c1cccnc1` [Example 213, N-(3-oxo-7-phenylisoindolin-4-yl)nicotinamide], the IC50 (read-out: TNIK) amounted to 0.6 µM.

On to `O=C(Nc1ccc(-c2ccc3ncccc3c2)c2c1C(=O)NC2)c1ccc(F)cc1` [Example 214, 4-Fluoro-N-(3-oxo-7-(quinolin-6-yl)isoindolin-4-yl)benzamide], for which the IC50 (read-out: TNIK) is above 20 µM.

Regarding `O=C(Nc1ccc(-c2cccc3ncccc23)c2c1C(=O)NC2)c1ccc(F)cc1` [Example 215, 4-Fluoro-N-(3-oxo-7-(quinolin-5-yl)isoindolin-4-yl)benzamide], the IC50 (read-out: TNIK) amounted to 0.24 µM.

For the compound `O=C(Nc1ccc(-c2ccnc3ccccc23)c2c1C(=O)NC2)c1ccc(F)cc1` [Example 216, 4-Fluoro-N-(3-oxo-7-(quinolin-4-yl)isoindolin-4-yl)benzamide], the IC50 (read-out: TNIK) turned out to be 0.16 µM.

Regarding `O=C(Nc1ccc(-c2cccc3cc[nH]c23)c2c1C(=O)NC2)c1ccc(F)cc1` [Example 217, N-(7-(1H-indol-7-yl)-3-oxoisoindolin-4-yl)-4-fluorobenzamide], the IC50 (read-out: TNIK) is 2.95 µM.

In the case of `O=C(Nc1ccc(-c2cccc3[nH]cnc23)c2c1C(=O)NC2)c1ccc(F)cc1` [Example 218, N-(7-(1H-benzo[d]imidazol-4-yl)-3-oxoisoindolin-4-yl)-4-fluorobenzamide], for the setting “read-out: TNIK”, the IC50 was 0.59 µM.

For the compound `O=C(Nc1ccc(Cc2ccccc2)c2c1C(=O)NC2)c1ccc(F)cc1` [Example 219, N-(7-benzyl-3-oxoisoindolin-4-yl)-4-fluorobenzamide], the IC50 (read-out: TNIK) is 13.9 µM.

Turning to `COc1cccc(-c2ccc(NC(=O)c3ccco3)c3c2CN(C(=O)c2ccco2)C3=O)c1OC` [Example 224, N-(7-(2,3-dimethoxyphenyl)-2-(furan-2-carbonyl)-3-oxoisoindolin-4-yl)furan-2-carboxamide], the IC50 (read-out: TNIK) was found to be 1 µM.

For the compound `COc1cccc(-c2ccc(NC(=O)c3cccs3)c3c2CN(C(=O)c2cccs2)C3=O)c1OC` [Example 225, N-(7-(2,3-dimethoxyphenyl)-3-oxo-2-(thiophene-2-carbonyl)isoindolin-4-yl)thiophene-2-carboxamide], where the note is “read-out: TNIK”, the IC50 was above 20 µM.

Regarding `O=C(Nc1ccc(F)cc1)Nc1ccc(-c2ccccc2)c2c1C(=O)NC2` [Example 226, 1-(4-Fluorophenyl)-3-(3-oxo-7-phenylisoindolin-4-yl)urea], the IC50 (read-out: TNIK) was 2.5 µM.

`O=C(Nc1ccccc1)Nc1ccc(-c2ccccc2)c2c1C(=O)NC2` [Example 227, 1-(3-Oxo-7-phenylisoindolin-4-yl)-3-phenylurea]: the IC50 (read-out: TNIK) is 1.2 µM.

Consider `N#Cc1ccc(NC(=O)Nc2ccc(-c3ccccc3)c3c2C(=O)NC3)cc1` [Example 228, 1-(4-Cyanophenyl)-3-(3-oxo-7-phenylisoindolin-4-yl)urea], for which, where the note is “read-out: TNIK”, the IC50 was above 20 µM.

As to `CCCCNC(=O)Nc1ccc(-c2ccccc2)c2c1C(=O)NC2` [Example 229, 1-Butyl-3-(3-oxo-7-phenylisoindolin-4-yl)urea], the IC50 (read-out: TNIK) turned out to be 1.1 µM.

On to `COc1ccc(NC(=O)Nc2ccc(-c3ccccc3)c3c2C(=O)NC3)cc1` [Example 230, 1-(4-Methoxyphenyl)-3-(3-oxo-7-phenylisoindolin-4-yl)urea], for which the IC50 (read-out: TNIK) turned out to be 0.9 µM.

As to `O=C(Nc1ccc(-c2ccccc2)c2c1C(=O)NC2)NC1CCCCC1` [Example 231, 1-Cyclohexyl-3-(3-oxo-7-phenylisoindolin-4-yl)urea], under “read-out: TNIK”, the IC50 is above 20 µM.

As to `Cc1ccc(NC(=O)Nc2ccc(-c3ccccc3)c3c2C(=O)NC3)cc1` [Example 232, 1-(3-Oxo-7-phenylisoindolin-4-yl)-3-(p-tolyl)urea], the IC50 (read-out: TNIK) amounted to 2.1 µM.

Regarding `COc1ccccc1NC(=O)Nc1ccc(-c2ccccc2)c2c1C(=O)NC2` [Example 233, 1-(2-Methoxyphenyl)-3-(3-oxo-7-phenylisoindolin-4-yl)urea], the IC50 (read-out: TNIK) came to 16.7 µM.

As to `CC(C)NC(=O)Nc1ccc(-c2ccccc2)c2c1C(=O)NC2` [Example 234, 1-Isopropyl-3-(3-oxo-7-phenylisoindolin-4-yl)urea], the IC50 (read-out: TNIK) was found to be 1.9 µM.

Consider `O=C(Nc1ccc([N+](=O)[O-])cc1)Nc1ccc(-c2ccccc2)c2c1C(=O)NC2` [Example 235, 1-(4-Nitrophenyl)-3-(3-oxo-7-phenylisoindolin-4-yl)urea], for which, under “read-out: TNIK”, the IC50 came out at 4.6 µM.

For the compound `CCNC(=O)Nc1ccc(-c2ccccc2)c2c1C(=O)NC2` [Example 236, 1-Ethyl-3-(3-oxo-7-phenylisoindolin-4-yl)urea], where the note is “read-out: TNIK”, the IC50 worked out at 0.58 µM.

As for `CC(=O)c1ccc(NC(=O)Nc2ccc(-c3ccccc3)c3c2C(=O)NC3)cc1` [Example 237, 1-(4-Acetylphenyl)-3-(3-oxo-7-phenylisoindolin-4-yl)urea], the IC50 (read-out: TNIK) came out at 4.9 µM.

For the compound `Cc1ccccc1NC(=O)Nc1ccc(-c2ccccc2)c2c1C(=O)NC2` [Example 238, 1-(3-Oxo-7-phenylisoindolin-4-yl)-3-(o-tolyl)urea], the IC50 (read-out: TNIK) is above 20 µM.

On to `O=C(Nc1ccc(-c2ccccc2)c2c1C(=O)NC2)NC1CCCC1` [Example 239, 1-Cyclopentyl-3-(3-oxo-7-phenylisoindolin-4-yl)urea], for which, for the setting “read-out: TNIK”, the IC50 was above 20 µM.

Consider `O=C(Nc1cccc(F)c1)Nc1ccc(-c2ccccc2)c2c1C(=O)NC2` [Example 240, 1-(3-Fluorophenyl)-3-(3-oxo-7-phenylisoindolin-4-yl)urea], for which the IC50 (read-out: TNIK) was determined as 2.4 µM.

In the case of `CSc1cccc(NC(=O)Nc2ccc(-c3ccccc3)c3c2C(=O)NC3)c1` [Example 241, 1-(3-(Methylthio)phenyl)-3-(3-oxo-7-phenylisoindolin-4-yl) urea], under “read-out: TNIK”, the IC50 came to 2.7 µM.

On to `O=C(Nc1ccccc1F)Nc1ccc(-c2ccccc2)c2c1C(=O)NC2` [Example 242, 1-(2-Fluorophenyl)-3-(3-oxo-7-phenylisoindolin-4-yl)urea], for which the IC50 (read-out: TNIK) worked out at 2.3 µM.

For `O=C(Nc1ccc(Cl)cc1)Nc1ccc(-c2ccccc2)c2c1C(=O)NC2` [Example 243, 1-(4-Chlorophenyl)-3-(3-oxo-7-phenylisoindolin-4-yl)urea], the IC50 (read-out: TNIK) came to 3.9 µM.

With `COc1ccc(-c2ccc(NC(=O)Nc3ccccc3)c3c2CNC3=O)cc1` [Example 244, 1-(7-(4-Methoxyphenyl)-3-oxoisoindolin-4-yl)-3-phenylurea], the IC50 (read-out: TNIK) was 4.02 µM.

For `O=C(Nc1ccccc1)Nc1ccc(-c2ccc(F)cc2)c2c1C(=O)NC2` [Example 245, 1-(7-(4-Fluorophenyl)-3-oxoisoindolin-4-yl)-3-phenylurea], the IC50 (read-out: TNIK) came out at 6.5 µM.

Take `Nc1ccc(-c2ccccc2)c2c1C(=O)N(C(=O)NC1CCCCC1)C2` [Example 246, 7-Amino-N-cyclohexyl-1-oxo-4-phenylisoindolin-2-carboxamide]: the IC50 (read-out: TNIK) was above 20 µM.

Consider `O=C1NCc2c(-c3ccccc3)ccc(NC(=S)Nc3ccccc3)c21` [Example 247, 1-(3-Oxo-7-phenylisoindolin-4-yl)-3-phenylthiourea], for which the IC50 (read-out: TNIK) was above 20 µM.

Take `O=C(Nc1ccc(-c2ccccc2)c2c1C(=O)NC2)Oc1ccccc1` [Example 248, Phenyl (3-oxo-7-phenylisoindolin-4-yl)carbamate]: the IC50 (read-out: TNIK) was above 20 µM.

As to `O=C1NCc2c(-c3ccccc3)ccc(NS(=O)(=O)c3ccccc3)c21` [Example 249, N-(3-oxo-7-phenylisoindolin-4-yl)benzenesulfonamide], the IC50 (read-out: TNIK) is above 20 µM.

For `CS(=O)(=O)Nc1ccc(-c2ccccc2)c2c1C(=O)NC2` [Example 250, N-(3-oxo-7-phenylisoindolin-4-yl)methanesulfonamide], the IC50 (read-out: TNIK) was 21 µM.

For `O=C1NCc2c(-c3ccccc3)ccc(NS(=O)(=O)c3ccc(F)cc3)c21` [Example 251, 4-Fluoro-N-(3-oxo-7-phenylisoindolin-4-yl)benzene sulfonamide], the IC50 (read-out: TNIK) was above 20 µM.

Consider `COc1ccc(S(=O)(=O)Nc2ccc(-c3ccccc3)c3c2C(=O)NC3)cc1` [Example 252, 4-Methoxy-N-(3-oxo-7-phenylisoindolin-4-yl)benzene sulfonamide], for which, where the note is “read-out: TNIK”, the IC50 was above 20 µM.

`O=C1NCc2c(-c3ccccc3)ccc(NCCCl)c21` [Example 253, 7-((2-Chloroethyl)amino)-4-phenylisoindolin-1-one] returned an IC50 (TNIK (μM)) of 2.6 µM.

As for `N#CCCNc1ccc(-c2ccccc2)c2c1C(=O)NC2` [Example 254, 3-((3-Oxo-7-phenylisoindolin-4-yl)amino)propanenitrile], the IC50 (read-out: TNIK) stood at 5.6 µM.

(Values after US9856216B2, “Compounds as TNIK, IKKε and TBK1 inhibitors and pharmaceutical composition comprising same” (GREEN CROSS CORPORATION, priority 2015, dated 2018).)
